According to patent US20020177543A1, “Method for determining the activity of uncoupling proteins (UCPs) by monitoring NAD(P)H consumption” (priority 2000, published 2002):

Tests used:
UCP1 [1] = biological target: T1, UCP1 (Rattus norvegicus, UniProt P04633); test: Respiration rate by monitoring NADH fluorescence (NADH consumption), mitochondria that express UCP1; type: biochemical; settings: GDP 3 mM, palmitate 48 μM
T1 construct: made in house; host or cells: Saccharomyces cerevisiae W303, vector pYeDP-UCP (gal-cyc promoter); isolated mitochondria
T1 sequence (P04633 1-307): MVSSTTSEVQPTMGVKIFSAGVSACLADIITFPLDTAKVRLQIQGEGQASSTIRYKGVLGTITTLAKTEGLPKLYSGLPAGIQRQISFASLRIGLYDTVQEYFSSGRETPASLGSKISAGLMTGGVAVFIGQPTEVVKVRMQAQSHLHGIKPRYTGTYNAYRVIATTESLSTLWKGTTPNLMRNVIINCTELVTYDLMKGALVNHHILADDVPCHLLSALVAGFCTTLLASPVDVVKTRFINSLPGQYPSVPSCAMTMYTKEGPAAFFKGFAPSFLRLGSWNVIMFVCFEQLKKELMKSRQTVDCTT
Experimental: To isolate the mitochondria required for the subsequent experiments, yeasts of the strain Saccharomyces cerevisiae W303 that express UCP1 were inoculated into SP growth medium (0.67% nitrogen substrate, 0.1% casamino acids, 20 mg/ml tryptophan, 40 mg/ml adenine, 0.1% phosphate, 0.12% ammonium sulphate, 0.1% glucose, 2% lactic acid, pH 4.5) 36 hours before extraction of the mitochondria; 12 or 14 hours before extraction they were diluted in SG medium (0.67% nitrogen substrate, 0.1% casamino acids, 20 mg/ml tryptophan, 40 mg/ml adenine, 2% galactose pH 4.5) adjusting the optical density at 600 nm to between 0.3-0.4 absorbance units [Arechaga I, Raimbault S. et al., (1993) Cysteine residues are not essential for uncoupling protein function. Biochem. J. 296. 693-700]. […]
The second method, which is the object of the present invention, is based on determining the respiration rate by measuring the consumption of NAD(P)H. All the assays were performed on a 96-well micro-titre standardized plate (Nunc., Denmark). […] Fluorescence measurements were done using a POLAR star Galaxy plate reader (BMG Laboratories OmbH, Offenburg, Germany). […] Changes in the fluorescence signal were determined every 30 seconds in each well with an average of 6-9 readings for each measurement. […] From these values, fluorescence values for the suspension of mitochondria in the absence of NADH (blank) were subtracted. […]

UCP1 [2] = biological target: T1, UCP1; test: Respiration rate from oxygen consumption (oxygen electrode), mitochondria that express UCP1; type: biochemical; settings: UCP1 mitochondria of S. cerevisiae; GDP 3 mM, palmitate 48 μM, FCCP 10 μM (uncoupled respiration); basal 218
Experimental: To isolate the mitochondria required for the subsequent experiments, yeasts of the strain Saccharomyces cerevisiae W303 that express UCP1 were inoculated into SP growth medium (0.67% nitrogen substrate, 0.1% casamino acids, 20 mg/ml tryptophan, 40 mg/ml adenine, 0.1% phosphate, 0.12% ammonium sulphate, 0.1% glucose, 2% lactic acid, pH 4.5) 36 hours before extraction of the mitochondria; 12 or 14 hours before extraction they were diluted in SG medium (0.67% nitrogen substrate, 0.1% casamino acids, 20 mg/ml tryptophan, 40 mg/ml adenine, 2% galactose pH 4.5) adjusting the optical density at 600 nm to between 0.3-0.4 absorbance units [Arechaga I, Raimbault S. et al., (1993) Cysteine residues are not essential for uncoupling protein function. Biochem. J. 296. 693-700].
The mitochondria were prepared following a procedure based on that of Guerin et al., [Guerin B, Labbe P. Somlo M (1979) Preparation of yeast mitochondria (Saccharomyces cerevisiae) with good P/O and respiratory ratios Methods Enzymol. 55: 149-159]. The protoplasts are prepared by enzymatic digestion of the cell wall with cytohelicase and after their homogenization mitochondria are isolated by differential centrifugation [Arechaga I., Raimbault S. et al., (1993) Cysteine residues are not essential for uncoupling protein function. Biochem. J. 296. 693-700]. […]

Control mitochondria = test: Respiration rate from oxygen consumption (oxygen electrode), Control mitochondria; type: biochemical, Saccharomyces cerevisiae; settings: CONTROL mitochondria of S. cerevisiae; GDP 3 mM, palmitate 48 μM, FCCP 10 μM (uncoupled respiration); basal 144

Compound: Nc1nc2c(ncn2[C@@H]2O[C@H](COP(=O)(O)OP(=O)(O)O)[C@@H](O)[C@H]2O)c(=O)[nH]1 [GDP]
- Change in rate of NADH consumption compared to basal levels (in words) (UCP1 [1]): reduced compared to basal levels
- Oxygen consumption (UCP1 [2]): 149 nmoles of oxygen consumed per minute and per mg of protein
- Oxygen consumption (Control mitochondria): 155 nmoles of oxygen consumed per minute and per mg of protein
